Test results: publication PMC6988263 (Parasites & Vectors, 2020)

Target: T1, rHc-HRG-2 (recombinant Hc-HRG-2) (Haemonchus contortus, UniProt A0A7I5E8W1)
T1 construct: vector His tag), expressed in E. coli, Ni-NTA purified
Experiment: GSH-CDNB conjugation, absorbance at […] nm
Assay type: biochemical
Conditions: 1 mM GSH, 0.1 M potassium phosphate pH 6.5, 10 μM protein

T1 sequence (A0A7I5E8W1 entry or part of it): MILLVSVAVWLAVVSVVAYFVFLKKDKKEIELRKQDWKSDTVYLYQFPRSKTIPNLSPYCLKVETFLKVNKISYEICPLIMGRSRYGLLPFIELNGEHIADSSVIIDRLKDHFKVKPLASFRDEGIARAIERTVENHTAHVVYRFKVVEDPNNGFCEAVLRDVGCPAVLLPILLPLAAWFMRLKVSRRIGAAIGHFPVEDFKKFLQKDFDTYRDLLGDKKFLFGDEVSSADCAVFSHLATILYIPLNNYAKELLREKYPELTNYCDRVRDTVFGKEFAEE

O=[N+]([O-])c1ccc(Cl)c([N+](=O)[O-])c1 [CDNB, 1-chloro-2,4-dinitrobenzene]
Km: 508 ± 34.1 µM
